Measurements reported in patent US9321722B2, “Bis-indolic derivatives, their uses in particular as antibacterials” (UNIVERSITE JOSEPH FOURIER, priority 2011, dated 2016).
Converted amounts (≈) assume the structure as drawn.

Key:
[1] = tested on: HCT116 (human colon tumor); test: In vitro cytotoxicity; format: cell-based
Experimental: (§1) In vitro cytotoxicity was assayed on three cell lines—KB (human mouth carcinoma), MCR5 (human lung fibroblast) and HCT116 (human colon tumor). Results are presented in table III as % of cellular growth inhibition in presence of 10^−5 M and 10^−6 M of the tested bis-indolic derivatives.

[2] = tested on: KB (human mouth carcinoma); test: In vitro cytotoxicity; format: cell-based; settings: KB
Experimental: as §1

[3] = tested on: MRC5 (human lung fibroblast); test: In vitro cytotoxicity; format: cell-based
Experimental: as §1

[4] = tested on: S. aureus ATCC 106414 (VISA); test: MIC microdilution (Table I-1); format: cell-based, Staphylococcus aureus; settings: Staphylococcus aureus, read after 18 hours, read-out: MIC
Experimental: (§2) The microdilution method recommended by the Clinical and Laboratory Standard Institute [M07-A8, Vol. 29, N^o 2] was used. The activity of indolic compounds was tested against 29 bacterial strains belonging to 17 different species and 12 different genera (Staphylococcus, Streptococcus, Enterococcus, Listeria, Bacillus, Haemophilus, Escherichia, Klebsiella, Enterobacter, Serratia, Pseudomonas, and Acinetobacter). Bacterial inocula were prepared in Mueller Hinton broth (MH2, bioMerieux, Marcy L'Etoile, France), supplemented with 10% sheep blood for fastidious species (i.e., Streptococcus pneumoniae and Haemophilus influenzae). They were dispensed in 96 well microtiter plates (5×10^5 CFU/ml of final inoculum). Indolic compounds were added to the wells as to obtain two-fold serial concentrations (0.50-128 mg/L of final concentrations). Plates were incubated at 37° C. in ambient air, or at 37° C. in 5% CO2 enriched atmosphere for fastidious species. […] Drug-free cultures served as growth controls. Cultures receiving gentamicin, ciprofloxacin or cefotaxime served as positive controls.

[5] = tested on: S. aureus ATCC 29213; test: MIC microdilution (Table I-1); format: cell-based, Staphylococcus aureus; settings: Staphylococcus aureus, ATCC29213, read after 18 hours, read-out: MIC
Experimental: as §2

[6] = tested on: S. aureus ATCC 33592 (MRSA); test: MIC microdilution (Table I-1); format: cell-based, Staphylococcus aureus; settings: Staphylococcus aureus, read after 18 hours, read-out: MIC
Experimental: as §2

[7] = tested on: S. aureus ATCC 6538; test: MIC microdilution (Table I-1); format: cell-based, Staphylococcus aureus; settings: Staphylococcus aureus, ATCC6538, read after 18 hours, read-out: MIC
Experimental: as §2

[8] = tested on: S. aureus ATCC 9144; test: MIC microdilution (Table I-1); format: cell-based, Staphylococcus aureus; settings: Staphylococcus aureus, ATCC9144, read after 18 hours, read-out: MIC
Experimental: as §2

[9] = tested on: S. aureus CIP 103428; test: MIC microdilution (Table I-1); format: cell-based, Staphylococcus aureus; settings: Staphylococcus aureus, CIP103428, read after 18 hours, read-out: MIC
Experimental: as §2

[10] = tested on: S. aureus CIP 65.25 (MRSA); test: MIC microdilution (Table I-1); format: cell-based, Staphylococcus aureus; settings: Staphylococcus aureus, read after 18 hours, read-out: MIC
Experimental: as §2

[11] = tested on: S. aureus CIP 65.6; test: MIC microdilution (Table I-1); format: cell-based, Staphylococcus aureus; settings: Staphylococcus aureus, CIP65, read after 18 hours, read-out: MIC
Experimental: as §2

[12] = tested on: S. aureus SA-1199B; test: MIC microdilution (Table I-1); format: cell-based, Staphylococcus aureus; settings: Staphylococcus aureus, SA1199B, 18 h
Experimental: as §2

[13] = tested on: S. epidermidis ATCC 12228; test: MIC microdilution (Table I-1); format: cell-based, Staphylococcus epidermidis; settings: Staphylococcus epidermidis, ATCC12228, read after 18 hours, read-out: MIC
Experimental: as §2

[14] = tested on: S. epidermidis CIP 103627; test: MIC microdilution (Table I-1); format: cell-based, Staphylococcus epidermidis; settings: Staphylococcus epidermidis, CIP103627, read after 18 hours, read-out: MIC
Experimental: as §2

[15] = tested on: S. epidermidis CIP 81.55; test: MIC microdilution (Table I-1); format: cell-based, Staphylococcus epidermidis; settings: Staphylococcus epidermidis, CIP81, read after 18 hours, read-out: MIC
Experimental: as §2

[16] = tested on: Acinetobacter baumanii ATCC 19606; test: MIC microdilution (Table I-1); format: cell-based; settings: Acinetobacter baumannii, ATCC19606, read after 18 hours
Experimental: as §2

[17] = tested on: Bacillus subtilis CIP 5262; test: MIC microdilution (Table I-1); format: cell-based; settings: CIP5262, read after 18 hours, read-out: MIC
Experimental: as §2

[18] = tested on: E. faecalis ATCC 29212; test: MIC microdilution (Table I-1); format: cell-based; settings: Enterococcus faecalis, ATCC29212, read after 18 hours, read-out: MIC
Experimental: as §2

[19] = tested on: E. faecium CIP 54.32; test: MIC microdilution (Table I-1); format: cell-based; settings: Enterococcus faecium, CIP54, read after 18 hours, read-out: MIC
Experimental: as §2

[20] = tested on: Enterobacter cloacae ATCC 13047; test: MIC microdilution (Table I-1); format: cell-based; settings: ATCC13047, read after 18 hours
Experimental: as §2

[21] = tested on: Escherichia coli ATCC 25922; test: MIC microdilution (Table I-1); format: cell-based; settings: ATCC25922, read after 18 hours
Experimental: as §2

[22] = tested on: Haemophilus influenzae ATCC 49766; test: MIC microdilution (Table I-1); format: cell-based; settings: Haemophilus influenzae, ATCC49766, 18 h
Experimental: as §2

[23] = tested on: Klebsiella pneumoniae ATCC 35657; test: MIC microdilution (Table I-1); format: cell-based; settings: ATCC35657, read after 18 hours, read-out: MIC
Experimental: as §2

[24] = tested on: Listeria innocua CIP 80.11; test: MIC microdilution (Table I-1); format: cell-based; settings: CIP80, read after 18 hours, read-out: MIC
Experimental: as §2

[25] = tested on: Pseudomonas aeruginosa CIP 5933; test: MIC microdilution (Table I-1); format: cell-based; settings: CIP5933, read after 18 hours
Experimental: as §2

[26] = tested on: S. agalactiae (group B) ATCC 12400; test: MIC microdilution (Table I-1); format: cell-based; settings: Streptococcus agalactiae, ATCC12400, read after 18 hours, read-out: MIC
Experimental: as §2

[27] = tested on: S. aureus ATCC 25923; test: MIC microdilution (Table I-1); format: cell-based; settings: Staphylococcus aureus, ATCC25923, read after 18 hours
Experimental: as §2

[28] = tested on: S. mitis CIP 103335; test: MIC microdilution (Table I-1); format: cell-based; settings: Streptococcus mitis, CIP103335, read after 18 hours, read-out: MIC
Experimental: as §2

[29] = tested on: S. pneumoniae ATCC 49619; test: MIC microdilution (Table I-1); format: cell-based; settings: Streptococcus pneumoniae, ATCC49619, read after 18 hours
Experimental: as §2

[30] = tested on: S. pyogenes (group A) CIP 104226; test: MIC microdilution (Table I-1); format: cell-based; settings: Streptococcus pyogenes, CIP104226, read after 18 hours, read-out: MIC
Experimental: as §2

[31] = tested on: Serratia marcescens CIP 103551; test: MIC microdilution (Table I-1); format: cell-based; settings: CIP103551, read after 18 hours
Experimental: as §2

[32] = tested on: S. pneumoniae ATCC 6303; test: MIC microdilution (Table I-1); format: cell-based, Streptococcus pneumoniae; settings: Streptococcus pneumoniae, ATCC6303, read after 18 hours, read-out: MIC
Experimental: as §2

[33] = tested on: 29 bacterial strains belonging to 17 different species; test: Intrinsic antibacterial activity, MIC on the bacterial panel; format: cell-based; settings: result in words
Experimental: as §2

O=C(C(=O)N1CCOCC1c1c[nH]c2ccc(Br)cc12)c1c[nH]c2ccc(Br)cc12 (stereo not drawn) [Compound 6e, 1-(5-Bromo-1H-indol-3-yl)-2-(3-(5-bromo-1H-indol-3-yl)morpholino)ethane-1,2-dione]
inhibition at 10 µM ([1]; HCT-116, HCT116, 10^−5 M, read-out: % of cellular growth inhibition): 24 ± 6% | inhibition at 1 µM ([1]; HCT-116, HCT116, 10^−6 M, read-out: % of cellular growth inhibition (converted)): 3% | inhibition at 10 µM ([2]; 10^−5 M, read-out: % of cellular growth inhibition): 29 ± 6% | inhibition at 1 µM ([2]; 10^−6 M, read-out: % of cellular growth inhibition (converted)): 0% | inhibition at 10 µM ([3]; MRC5, 10^−5 M, read-out: % of cellular growth inhibition): 0% | inhibition at 1 µM ([3]; MRC5, 10^−6 M, read-out: % of cellular growth inhibition (converted)): 0%

CC(C)(C)OC(=O)NCC(NC(=O)C(F)(F)F)c1c[nH]c2ccc(Br)cc12 (stereo not drawn) [Compound 13, tert-Butyl(2-(5-bromo-1H-indol-3-yl)-2-(2,2,2-trifluoroacetamido)ethyl)carbamate]
MIC [4]: > 128 µg/mL | MIC [5]: 128 µg/mL (≈ 284 µM) | MIC [6]: > 128 µg/mL | MIC [7]: 64 µg/mL (≈ 142 µM) | MIC [8]: > 128 µg/mL | MIC [9]: 64 µg/mL (≈ 142 µM) | MIC [10]: > 128 µg/mL | MIC [11]: > 128 µg/mL | MIC [12]: 64 µg/mL (≈ 142 µM) | MIC [13]: > 128 µg/mL | MIC [14]: > 128 µg/mL | MIC [15]: > 128 µg/mL | MIC [16]: > 128 µg/mL | MIC [17]: 128 µg/mL (≈ 284 µM) | MIC [18]: > 128 µg/mL | MIC [19]: > 128 µg/mL | MIC [20]: > 128 µg/mL | MIC [21]: > 128 µg/mL | MIC [22]: > 128 µg/mL | MIC [23]: > 128 µg/mL | MIC [24]: > 128 µg/mL | MIC [25]: > 128 µg/mL | MIC [26]: 128 µg/mL (≈ 284 µM) | MIC [27]: > 128 µg/mL | MIC [28]: > 128 µg/mL | MIC [29]: 128 µg/mL (≈ 284 µM) | MIC [30]: 128 µg/mL (≈ 284 µM) | MIC [31]: > 128 µg/mL | MIC [32]: 128 µg/mL (≈ 284 µM) | intrinsic antibacterial activity [33]: lack of intrinsic antibacterial activity
